Test results published in ChEMBL document CHEMBL4007488, “Amphiphilic Indole Derivatives as Antimycobacterial Agents: Structure-Activity Relationships and Membrane Targeting Properties” (J Med Chem, 2017).
Converted amounts (≈) assume the structure as drawn.

Legend:
[1] = test system: Mycobacterium tuberculosis variant bovis; assay: Antimycobacterial activity against Mycobacterium bovis BCG ATCC 35734 assessed as growth inhibition at 10 uM after 5 days relative to control; type: functional; settings: ATCC 35734, 120 h, read-out: GI
[2] = test system: Mycobacterium tuberculosis variant bovis; assay: Antimycobacterial activity against Mycobacterium bovis BCG ATCC 35734 after 5 days by broth dilution method; type: functional; settings: ATCC 35734, 120 h

CCCCCCCCn1cc(CN2CCC(C)CC2)c2ccc(OC)cc21
inhibition of growth at 10 µM [1]: 99% | MIC50 [2]: 3 µM (≈ 1.11 µg/mL) | MIC90 [2]: 5 µM (≈ 1.85 µg/mL)

CC(C)=CCC/C(C)=C/Cn1cc(CN2CCSCC2)c2cc(F)ccc21
inhibition of growth at 10 µM [1]: 99% | MIC50 [2]: 15 µM (≈ 5.8 µg/mL) | MIC90 [2]: 23 µM (≈ 8.89 µg/mL)

CCCCn1cc(CN2CCCCCC2)c2c(F)cccc21
inhibition of growth at 10 µM [1]: 99% | MIC50 [2]: 10 µM (≈ 3.02 µg/mL) | MIC90 [2]: 23 µM (≈ 6.96 µg/mL)

CCCCCCCCn1cc(CNC2CCCCCC2)c2cc(F)ccc21
inhibition of growth at 10 µM [1]: 99% | MIC50 [2]: 3 µM (≈ 1.12 µg/mL) | MIC90 [2]: 16 µM (≈ 5.96 µg/mL)

CCCCCCCCn1cc(CN2CCCCCC2)c2cccc(OC)c21
inhibition of growth at 10 µM [1]: 99% | MIC50 [2]: 6 µM (≈ 2.22 µg/mL) | MIC90 [2]: 10 µM (≈ 3.71 µg/mL)

CC(C)=CCC/C(C)=C/Cn1cc(CN2CCCCCC2)c2cc(F)ccc21
inhibition of growth at 10 µM [1]: 99% | MIC50 [2]: 4 µM (≈ 1.53 µg/mL) | MIC90 [2]: 7 µM (≈ 2.68 µg/mL)

CCCCCCCCn1cc(CNC23CC4CC(CC(C4)C2)C3)c2cccc(OC)c21
inhibition of growth at 10 µM [1]: 99% | MIC50 [2]: 3 µM (≈ 1.27 µg/mL) | MIC90 [2]: 8 µM (≈ 3.38 µg/mL)

CCCCCCCCn1cc(CN2CCCCCC2)c2c(OC)cccc21
inhibition of growth at 10 µM [1]: 99% | MIC50 [2]: 6 µM (≈ 2.22 µg/mL) | MIC90 [2]: 11 µM (≈ 4.08 µg/mL)

CCCCCCCCn1cc(CN2CCCCC2)c2c(F)cccc21
inhibition of growth at 10 µM [1]: 99% | MIC50 [2]: 6 µM (≈ 2.07 µg/mL) | MIC90 [2]: 11 µM (≈ 3.79 µg/mL)

CCCCCCCCn1cc(CN(CC)CC)c2cc(F)ccc21
inhibition of growth at 10 µM [1]: 99% | MIC50 [2]: 10 µM (≈ 3.33 µg/mL) | MIC90 [2]: 36 µM (≈ 12 µg/mL)

CCCCCCCCn1cc(CN2CCC(C)CC2)c2cccc(F)c21
inhibition of growth at 10 µM [1]: 99% | MIC50 [2]: 4 µM (≈ 1.43 µg/mL) | MIC90 [2]: 6 µM (≈ 2.15 µg/mL)

CCN(CC)Cc1cn(C/C=C(\C)CCC=C(C)C)c2ccc(F)cc12
inhibition of growth at 10 µM [1]: 99% | MIC50 [2]: 13 µM (≈ 4.63 µg/mL) | MIC90 [2]: 24 µM (≈ 8.56 µg/mL)

CCCN(CC)Cc1cn(C/C=C(\C)CCC=C(C)C)c2ccc(F)cc12
inhibition of growth at 10 µM [1]: 99% | MIC50 [2]: 13 µM (≈ 4.82 µg/mL) | MIC90 [2]: 25 µM (≈ 9.26 µg/mL)

CCCCCCCCn1cc(CN2CCC3(CC2)OCCO3)c2ccc(F)cc21
inhibition of growth at 10 µM [1]: 99% | MIC50 [2]: 3 µM (≈ 1.21 µg/mL) | MIC90 [2]: 5 µM (≈ 2.01 µg/mL)

CCCCCCCCn1cc(CN2CCC3(CC2)OCCO3)c2c(F)cccc21
inhibition of growth at 10 µM [1]: 99% | MIC50 [2]: 3 µM (≈ 1.21 µg/mL) | MIC90 [2]: 6 µM (≈ 2.42 µg/mL)

CCCCCCCCn1cc(CN2CCCCC2)c2cc(OC)ccc21
inhibition of growth at 10 µM [1]: 99% | MIC50 [2]: 5 µM (≈ 1.78 µg/mL) | MIC90 [2]: 7.5 to 8 µM (≈ 2.67 to 2.85 µg/mL)

CCCCCCCCn1cc(CN2CCCCC2)c2cc(F)ccc21
inhibition of growth at 10 µM [1]: 99% | MIC50 [2]: 6 µM (≈ 2.07 µg/mL) | MIC90 [2]: 11 µM (≈ 3.79 µg/mL)

Fc1ccc2c(c1)c(CN1CCCCC1)cn2CCCOc1ccccc1
inhibition of growth at 10 µM [1]: 99% | MIC50 [2]: 19 µM (≈ 6.96 µg/mL) | MIC90 [2]: 50 µM (≈ 18.3 µg/mL)

CCCCCCCCn1cc(CN2CCC3(CC2)OCCO3)c2cc(F)ccc21
inhibition of growth at 10 µM [1]: 99% | MIC50 [2]: 3 µM (≈ 1.21 µg/mL) | MIC90 [2]: 5 µM (≈ 2.01 µg/mL)

Fc1ccc2c(c1)c(CN1CCCCC1)cn2Cc1ccccc1
inhibition of growth at 10 µM [1]: 99% | MIC50 [2]: 35 µM (≈ 11.3 µg/mL) | MIC90 [2]: > 50 µM

CCCCCCCCn1cc(C(=O)N2CCCCCC2)c2cc(F)ccc21
inhibition of growth at 10 µM [1]: 99% | MIC50 [2]: > 50 µM | MIC90 [2]: > 50 µM

CCN1CCN(Cc2cn(C/C=C(\C)CCC=C(C)C)c3ccc(F)cc23)CC1
inhibition of growth at 10 µM [1]: 99% | MIC50 [2]: 13 µM (≈ 5.17 µg/mL) | MIC90 [2]: 25 µM (≈ 9.94 µg/mL)

CC(C)=CCC/C(C)=C/Cn1cc(CN2CCCC2)c2cc(F)ccc21
inhibition of growth at 10 µM [1]: 99% | MIC50 [2]: 13 µM (≈ 4.61 µg/mL) | MIC90 [2]: 25 µM (≈ 8.86 µg/mL)

CCCCCCCCn1cc(CN(CC)CCC)c2cc(F)ccc21
inhibition of growth at 10 µM [1]: 99% | MIC50 [2]: 7 µM (≈ 2.43 µg/mL) | MIC90 [2]: 39 µM (≈ 13.5 µg/mL)

Fc1ccc2c(c1)c(CN1CCCCC1)cn2CCC1CCCCC1
inhibition of growth at 10 µM [1]: 99% | MIC50 [2]: 17 µM (≈ 5.82 µg/mL) | MIC90 [2]: 27 µM (≈ 9.25 µg/mL)

CCCCCCCCn1cc(CN2CCC3(CC2)OCCO3)c2c(OC)cccc21
inhibition of growth at 10 µM [1]: 99% | MIC50 [2]: 6 µM (≈ 2.49 µg/mL) | MIC90 [2]: 9 µM (≈ 3.73 µg/mL)

O=C(Cn1cc(CN2CCCCC2)c2cc(F)ccc21)NC1CC1
inhibition of growth at 10 µM [1]: 99% | MIC50 [2]: > 50 µM | MIC90 [2]: > 50 µM

CCCCCCCCn1cc(CN2CCCCCC2)c2ccc(F)cc21
inhibition of growth at 10 µM [1]: 99% | MIC50 [2]: 4 µM (≈ 1.43 µg/mL) | MIC90 [2]: 6 µM (≈ 2.15 µg/mL)

CCCCn1cc(CN2CCCCC2)c2cc(F)ccc21
inhibition of growth at 10 µM [1]: 99% | MIC50 [2]: > 50 µM | MIC90 [2]: 100 µM (≈ 28.8 µg/mL)

CCCCCCCCn1cc(CN2CCC(C)CC2)c2c(F)cccc21
inhibition of growth at 10 µM [1]: 99% | MIC50 [2]: 2 µM (≈ 0.717 µg/mL) | MIC90 [2]: 5 µM (≈ 1.79 µg/mL)

CCCCCCCCCCn1cc(CN2CCCCCC2)c2c(F)cccc21
inhibition of growth at 10 µM [1]: 99% | MIC50 [2]: 10 µM (≈ 3.87 µg/mL) | MIC90 [2]: 15 µM (≈ 5.8 µg/mL)

CCCCCCCCn1ccc2cc(F)ccc21
inhibition of growth at 10 µM [1]: 99% | MIC50 [2]: > 50 µM | MIC90 [2]: > 50 µM

CCCCCCCCn1cc(CN2CCSCC2)c2cc(F)ccc21
inhibition of growth at 10 µM [1]: 99% | MIC50 [2]: 11 µM (≈ 3.99 µg/mL) | MIC90 [2]: > 50 µM

CC(C)=CCC/C(C)=C/Cn1cc(CNC2CCCCCC2)c2cc(F)ccc21
inhibition of growth at 10 µM [1]: 99% | MIC50 [2]: 45 µM (≈ 17.8 µg/mL) | MIC90 [2]: 50 µM (≈ 19.8 µg/mL)

CC(C)=CCC/C(C)=C/Cn1cc(CN2CCC(C)CC2)c2cc(F)ccc21
inhibition of growth at 10 µM [1]: 99% | MIC50 [2]: 4 µM (≈ 1.53 µg/mL) | MIC90 [2]: 6 µM (≈ 2.3 µg/mL)

CCCCCCCCn1cc(CN2CCC3(CC2)OCCO3)c2cc(OC)ccc21
inhibition of growth at 10 µM [1]: 99% | MIC50 [2]: 5 µM (≈ 2.07 µg/mL) | MIC90 [2]: 9 µM (≈ 3.73 µg/mL)

CCCCCCCCn1cc(CN2CCCCC2)c2c(OC)cccc21
inhibition of growth at 10 µM [1]: 99% | MIC50 [2]: 16 µM (≈ 5.7 µg/mL) | MIC90 [2]: 35 µM (≈ 12.5 µg/mL)

CCCCCCCCCCCCn1cc(CN2CCCCCC2)c2c(F)cccc21
inhibition of growth at 10 µM [1]: 99% | MIC50 [2]: 7 µM (≈ 2.9 µg/mL) | MIC90 [2]: 10 µM (≈ 4.15 µg/mL)

CC(C)=CCC/C(C)=C/Cn1cc(CN2CCCCC2)c2cc(Br)ccc21
inhibition of growth at 10 µM [1]: 99% | MIC50 [2]: 8 µM (≈ 3.44 µg/mL) | MIC90 [2]: 10 µM (≈ 4.29 µg/mL)

CC(C)=CCC/C(C)=C/Cn1cc(C(=O)N2CCCCC2)c2cc(F)ccc21
inhibition of growth at 10 µM [1]: 99% | MIC50 [2]: > 50 µM | MIC90 [2]: > 50 µM

CCCCCCCCn1cc(CNC2CCCC2)c2cc(F)ccc21
inhibition of growth at 10 µM [1]: 99% | MIC50 [2]: 6 µM (≈ 2.07 µg/mL) | MIC90 [2]: 21 µM (≈ 7.23 µg/mL)

CCCCCCCCn1cc(CNC23CC4CC(CC(C4)C2)C3)c2ccc(F)cc21
inhibition of growth at 10 µM [1]: 99% | MIC50 [2]: 3 µM (≈ 1.23 µg/mL) | MIC90 [2]: 5 µM (≈ 2.05 µg/mL)

CCCCCCCCn1cc(CN2CCCCC2)c2ccc(OC)cc21
inhibition of growth at 10 µM [1]: 99% | MIC50 [2]: 7 µM (≈ 2.5 µg/mL) | MIC90 [2]: 13 µM (≈ 4.64 µg/mL)

N#CCCCn1cc(CN2CCCCC2)c2cc(F)ccc21
inhibition of growth at 10 µM [1]: 99% | MIC50 [2]: > 50 µM | MIC90 [2]: > 50 µM

CCCCCCCCn1cc(CNC(C)C)c2cc(F)ccc21
inhibition of growth at 10 µM [1]: 99% | MIC50 [2]: 12 µM (≈ 3.82 µg/mL) | MIC90 [2]: 26 µM (≈ 8.28 µg/mL)

Fc1cccc2[nH]cc(CN3CCCCCC3)c12
inhibition of growth at 10 µM [1]: 99% | MIC50 [2]: > 50 µM | MIC90 [2]: > 50 µM

CCCCCCCCn1cc(CN2CCC(C)CC2)c2c(OC)cccc21
inhibition of growth at 10 µM [1]: 99% | MIC50 [2]: 10 µM (≈ 3.71 µg/mL) | MIC90 [2]: 18 µM (≈ 6.67 µg/mL)

CCCCCCCCn1cc(CN2CCCCCC2)c2ccc(OC)cc21
inhibition of growth at 10 µM [1]: 99% | MIC50 [2]: 4 µM (≈ 1.48 µg/mL) | MIC90 [2]: 6 µM (≈ 2.22 µg/mL)

CCCCCCCCn1cc(CN(C)CCC)c2cc(F)ccc21
inhibition of growth at 10 µM [1]: 99% | MIC50 [2]: 12 µM (≈ 3.99 µg/mL) | MIC90 [2]: 35 µM (≈ 11.6 µg/mL)

CCCCCCCCn1cc(CN2CCCCCC2)c2cc(F)ccc21
inhibition of growth at 10 µM [1]: 99% | MIC50 [2]: 4 µM (≈ 1.43 µg/mL) | MIC90 [2]: 6 µM (≈ 2.15 µg/mL)

CC(C)=CCC/C(C)=C/Cn1cc(CN(C)C)c2cc(F)ccc21
inhibition of growth at 10 µM [1]: 99% | MIC50 [2]: 14.5 µM (≈ 4.76 µg/mL) | MIC90 [2]: 25 µM (≈ 8.21 µg/mL)

CCCCCCCCn1cc(CN2CCCCCC2)c2cc(OC)ccc21
inhibition of growth at 10 µM [1]: 99% | MIC50 [2]: 4 µM (≈ 1.48 µg/mL) | MIC90 [2]: 5 µM (≈ 1.85 µg/mL)

COc1ccc2c(c1)c(CN1CCCCC1)cn2C/C=C(\C)CCC=C(C)C
inhibition of growth at 10 µM [1]: 99% | MIC50 [2]: 9 µM (≈ 3.43 µg/mL) | MIC90 [2]: 12 µM (≈ 4.57 µg/mL)

CCCCCCCCn1cc(CN2CCC(C)CC2)c2cc(F)ccc21
inhibition of growth at 10 µM [1]: 99% | MIC50 [2]: 4 µM (≈ 1.43 µg/mL) | MIC90 [2]: 6 µM (≈ 2.15 µg/mL)

CC(C)=CCC/C(C)=C/Cn1cc(CN2CCS(=O)(=O)CC2)c2cc(F)ccc21
inhibition of growth at 10 µM [1]: 99% | MIC50 [2]: > 50 µM | MIC90 [2]: > 50 µM
